{"source": "patent US20030148954A1", "about": "“Agents and methods for modulating activator protein-1-mediated cellular processes” (Wisconsin Alumni Research Foundation, priority 2001, published 2003)", "assay_type_in_all_cases": "cell-based, human", "key": {"AP-1 [1]": {"test_system": "AP-1", "assay": "AP-1 luciferase reporter, transient transfection of K562 cells", "from_the_text": "(§1) Plasmids—The pBabe-NIC-1 (pNIC-1) expression vector encoding constitutively active Notch-1 (NIC-1) was described previously (36,37,51). This vector was derived from the pBabe-puro retroviral vector and includes a cDNA sequence encoding amino acids 1759-2556 of human Notch-1 with a Myc tag fused to its carboxyl terminus. Human NIC-1 deletion mutants were generated by PCR using a full-length human Notch-1 expression vector as the template. The Notch-dependent reporter plasmid containing four CBF1 binding sites and an simian virus 40 promoter fused to luciferase (p4×CBF1luc) was described previously (52). The AP-1 reporter plasmid (p1×AP1luc) containing a collagenase promoter fragment (−73/+67) with a single AP-1 binding site in the luciferase reporter vector pGL2-basic (Promega) was described previously (53). The NF-κB reporter plasmid (p3×κBluc) containing three NF-κB binding sites and a minimal promoter fused to luciferase was a kind gift of Dr. Shigeki Miyamoto (University of Wisconsin Medical School). The pBabe-H-Ras(12V) expression vector encoding constitutively active H-Ras was a kind gift of Dr. Charming Der (University of North Carolina-Chapel Hill). This vector was derived from the pBabe-puro retroviral vector and includes a cDNA encoding H-Ras with a Gly to Val mutation at amino acid 12.\nTransient Transfections—K562 cells (5×10^5) were collected by centrifugation at 240×g for 8 min at 4° C. and resuspended in 4 ml of complete IMEM. Plasmid DNAs (1 μg of reporter and 2 μg of effector) were added to 150 μl of IMEM, incubated with Superfect (4 μl/1 μg DNA; Qiagen) for 10 min at room temperature and then added to cells.\nFor each transfection, cells were incubated for 26 h after transfection and then treated with TPA (final concentration: 5 nM) or the vehicle (DMSO). After incubating for another 12 or 16 h, cells were harvested and assayed for luciferase activity. Luciferase activity was normalized by the protein content of the lysates, determined by Bradford assay using γ-globulin as a standard."}, "CSL (CBF1)": {"test_system": "CSL (CBF1)", "assay": "CSL-dependent (p4×CBF1luc) luciferase reporter, transient transfection of K562 cells", "from_the_text": "as §1, with “The pBabe-H-Ras(12V) expression vector encoding constitutively active H-Ras was a kind gift of Dr. Charming Der (University of North Carolina-Chapel Hill). This vector was derived from the pBabe-puro retroviral vector and includes a cDNA encoding H-Ras with a Gly to Val mutation at amino acid 12.” left out\n(§2) For each transfection, cells were incubated for 26 h after transfection and then treated with TPA (final concentration: 5 nM) or the vehicle (DMSO). […] Luciferase activity was normalized by the protein content of the lysates, determined by Bradford assay using γ-globulin as a standard."}, "AP-1 [2]": {"test_system": "AP-1", "assay": "AP-1 luciferase reporter, transient transfection of HeLa cells", "conditions": "TPA 5 nM 16 h", "from_the_text": "as §1, with “The pBabe-H-Ras(12V) expression vector encoding constitutively active H-Ras was a kind gift of Dr. Charming Der (University of North Carolina-Chapel Hill). This vector was derived from the pBabe-puro retroviral vector and includes a cDNA encoding H-Ras with a Gly to Val mutation at amino acid 12.” left out\nas §2"}, "JNK": {"test_system": "JNK", "assay": "Western blot with phospho-specific antibodies, JNK", "conditions": "K562-NIC-1 versus K562-Babe, 5 nM TPA 30 min", "protocol": "(§3) Stable Transfection—K562 cells were stably transfected by electroporation with a Bio-Rad Gene pulser electroporator. Cells (5×10^6) were washed with ice-cold PBS, resuspended in 0.5 ml of ice-cold PBS, mixed with 5 μg linearized plasmid DNA, and subjected to electroporation (960 microfarad; 220 V) in a 0.4 cm-wide electroporation cuvette (BTX). pBabe and pNIC-1 were linearized with NotI. Cells were then added to 20 ml of complete IMEM, grown for 48 h, and diluted in complete IMEM containing 1.5 μg/ml puromycin (pools of K562-Babe and K562-NIC-1 cells). Stably transfected cells were analyzed for erythroid differentiation as soon as the pools were generated by benzidine staining to reduce the probability of phenotypic changes that may result from prolonged growth.\n(§4) To measure the phosphorylation state of components of the MAPK pathway, K562-Babe and K562-NIC-1 cells (1×10^6) were collected after treatment with 5 nM TPA or DMSO for 30 min. Cells were washed once with ice-cold PBS, cell pellets were resuspended in 30 μl ice-cold PBS and were immediately boiled in 70 μl SDS sample buffer for 10 min. Proteins (10 μl) were resolved by SDS-PAGE on a 10% acrylamide gel and transferred to Immobilon P membrane (Millipore). […] Antigen-antibody complexes were detected with ECL Plus™ (Amersham Life Science) according to manufacturer's instructions."}, "p38": {"test_system": "p38", "assay": "Western blot with phospho-specific antibodies, p38", "conditions": "K562-NIC-1 versus K562-Babe, 5 nM TPA 30 min", "protocol": "as §3, §4"}}, "note": "“Also recorded” adds a separate entry of the source."}
{"substance": "NIC-1: constitutively active Notch-1 intracellular domain, amino acids 1759-2556 of human Notch-1 with carboxyl-terminal Myc tag, expressed from pBabe-NIC-1", "values": [{"measurement": "component of TPA-induced AP-1 reporter activity insensitive to NIC-1", "setting": "AP-1 [1]; K562, both AP-1 reporters", "value": "~30", "unit": "%"}, {"measurement": "inhibition of H-Ras(12V)-activated AP-1 reporter activity", "setting": "AP-1 [1]; K562, cotransfected pBabe-H-Ras(12V)", "value": "almost completely inhibited; also recorded: completely inhibits"}, {"measurement": "concentration response curve for AP-1 repression relative to CSL-dependent activation", "setting": "AP-1 [1]; K562, increasing amounts of NIC-1 expression vector, TPA 5 nM 12 h", "value": "slightly shifted to the left"}, {"measurement": "repression of TPA-induced AP-1 reporter activity", "setting": "AP-1 [1]; K562, p1×AP1luc, TPA 5 nM 12 or 16 h", "value": "repressed"}, {"measurement": "degree of repression of AP-1 reporter with tandem AP-1 binding sites upstream of a β-globin promoter", "setting": "AP-1 [1]; K562, pβ106(AP1)2luc, TPA", "value": "comparable to that seen with the MMP1 promoter"}, {"measurement": "inhibition of TPA-inducible AP-1 activity", "setting": "AP-1 [1]; K562, range of TPA concentrations, 16 h", "value": 70, "unit": "%"}, {"measurement": "activation of CSL-dependent reporter activity", "setting": "CSL (CBF1)", "value": "strongly activated"}, {"measurement": "repression of TPA-induced AP-1-mediated activation", "setting": "AP-1 [2]", "value": "repressed"}, {"measurement": "effect on TPA-induced or basal phosphorylation of JNK", "setting": "JNK", "value": "did not affect"}, {"measurement": "effect on TPA-induced or basal phosphorylation of p38", "setting": "p38", "value": "did not affect"}]}
